Assay results taken from patent US20240246946A1, “MODULATORS OF TREX1” (Constellation Pharmaceuticals, Inc., priority 2021, published 2024).

Columns and labels:
[1] = biological target: T1, full length human TREX1 (Homo sapiens, UniProt Q9NSU2); assay: hTREX1 Biochemical Assay (fluorescence, dsDNA substrate degradation); details: biochemical, read-out: hTREX1 IC50
T1 construct: N-terminally His-Tev tagged full length human TREX1; made in house; host or cells: E. coli
T1 sequence (Q9NSU2 1-314): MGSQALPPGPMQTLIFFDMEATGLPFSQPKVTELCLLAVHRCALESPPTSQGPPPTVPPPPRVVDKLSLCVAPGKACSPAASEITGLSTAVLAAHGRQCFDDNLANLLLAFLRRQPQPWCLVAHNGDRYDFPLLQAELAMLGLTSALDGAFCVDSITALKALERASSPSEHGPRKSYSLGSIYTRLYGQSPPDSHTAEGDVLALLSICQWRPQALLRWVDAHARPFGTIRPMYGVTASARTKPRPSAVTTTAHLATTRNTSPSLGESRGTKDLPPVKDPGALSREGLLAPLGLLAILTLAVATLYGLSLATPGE
Method in brief: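 Fluorescence rises as enzyme degrades a quenched TEX615-labelled dsDNA substrate (60 nM) in 50 mM Tris, 150 mM NaCl, 5 mM MgCl2, pH 7.4. Full-length His-Tev-tagged human TREX1, 4 pM, sits with compound 4 hours at 25° C before substrate; reaction 18 hours, stopped with EDTA.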

[2] = biological target: T2, full length mouse TREX1 (Mus musculus, UniProt Q91XB0); assay: mTREX1 Biochemical Assay (fluorescence, dsDNA substrate degradation); details: biochemical, read-out: mTREX1 IC50
T2 construct: N-terminally His-Tev tagged full length mouse TREX1; made in house; host or cells: E. coli
T2 sequence (Q91XB0 1-314): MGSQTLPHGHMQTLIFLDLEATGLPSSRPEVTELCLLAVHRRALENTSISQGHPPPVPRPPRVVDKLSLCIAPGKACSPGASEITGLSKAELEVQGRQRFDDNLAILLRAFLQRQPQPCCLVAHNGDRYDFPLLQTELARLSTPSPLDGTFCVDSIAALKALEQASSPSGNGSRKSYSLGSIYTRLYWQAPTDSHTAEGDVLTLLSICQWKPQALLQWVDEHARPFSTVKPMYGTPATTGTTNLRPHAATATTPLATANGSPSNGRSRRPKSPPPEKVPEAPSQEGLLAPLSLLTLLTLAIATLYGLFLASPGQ
Method in brief: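 Reaction run 18 h at 25° C. with 60 nM TEX615/quencher-labelled dsDNA and 6 pM mouse TREX1 in Tris buffer (pH 7.4, 5 mM MgCl2, 1.0% DMSO), enzyme having sat 4 h with compound across 10 concentrations. EDTA quench; substrate degradation measured as fluorescence increase.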

[3] = biological target: T3, human TREX2 (residues M44-A279) (Homo sapiens, UniProt Q9BQ50); assay: hTREX2 Biochemical Assay (fluorescence, dsDNA substrate degradation); details: biochemical selectivity for hTREX1 vs hTREX2
T3 construct: human TREX2 (residues M44-A279, expressed in E. coli); made in house; host or cells: E. coli
T3 sequence (Q9BQ50 44-279 isoform Q9BQ50-1): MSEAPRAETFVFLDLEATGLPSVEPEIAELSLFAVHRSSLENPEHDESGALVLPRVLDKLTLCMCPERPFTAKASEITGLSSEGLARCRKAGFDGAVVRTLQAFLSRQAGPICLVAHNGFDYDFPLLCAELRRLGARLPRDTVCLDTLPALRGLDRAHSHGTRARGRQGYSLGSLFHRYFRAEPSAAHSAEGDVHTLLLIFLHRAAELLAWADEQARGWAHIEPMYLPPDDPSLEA
Method in brief: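 Fluorogenic dsDNA degradation read at 615 nm (570 nm excitation) after EDTA quench. Final 60 nM substrate, 50 pM His-Tev-tagged enzyme, 5 mM MgCl2, pH 7.4, 1.0% DMSO; 4 h compound–enzyme preincubation then 18 h reaction, both 25 °C; 10-point titration.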

Compound | IC50 [1] [nM] | IC50 [2] [nM] | hTREX1 vs hTREX2 selectivity [3]
CC(c1nc(C(=O)Nc2cnoc2)c(O)c(=O)n1C)C(c1cnn(CCN2CCN(C)CC2)c1)c1ccccc1C#N (single isomer, unassigned) [Example 32 D2E1] | > 10 | > 10 | C (C = >50 fold selective for hTREX1)
COCCn1cc(C(c2cc(F)ccc2C#N)C(C)c2nc(C(=O)Nc3cnoc3)c(O)c(=O)n2C)c(C)n1 (single isomer, unassigned) [Example 103 D2E2] | > 10 | > 10 | A (A = <25 fold selective for hTREX1)
CC(c1nc(C(=O)Nc2cnoc2)c(O)c(=O)n1C)C(c1cnn(CCN2CCN(C(=O)OC(C)(C)C)CC2)c1)c1ccccc1C#N (single isomer, unassigned) [Example 21 D2E1] | > 10 | > 10 | B (B = 25 to 50-fold selective for hTREX1)
CC(c1nc(C(=O)Nc2cnoc2)c(O)c(=O)n1C)C(c1cnn(C(C)(C)CC#N)c1)c1cc(F)ccc1Cl (single isomer, unassigned) [Example 100 D1E2] | 1 to 10 | > 10 | A (A = <25 fold selective for hTREX1)
CC(c1nc(C(=O)Nc2cnoc2)c(O)c(=O)n1C)C(c1cnn(C2COC2)c1)c1ccccc1C#N (single isomer, unassigned) [Example 106 D2E1] | > 10 | > 10 | B (B = 25 to 50-fold selective for hTREX1)
CC(c1nc(C(=O)Nc2cnoc2)c(O)c(=O)n1C)C(c1cnn(C)c1)c1ccc(C(=O)N(C)C)cc1C#N (single isomer, unassigned) [Example 11 D1E2] | > 10 | > 10 | B (B = 25 to 50-fold selective for hTREX1)
CC(c1nc(C(=O)Nc2cnoc2)c(O)c(=O)n1C)C(c1cnn(C)c1)c1ccc(F)cc1C#N (single isomer, unassigned) [Example 15 D2E1] | > 10 | > 10 | B (B = 25 to 50-fold selective for hTREX1)
CC(c1nc(C(=O)Nc2cnoc2)c(O)c(=O)n1C)C(c1cnn(CC(C)(C)C#N)c1)c1cc(F)ccc1Cl (single isomer, unassigned) [Example 99 D1E2] | 1 to 10 | 1 to 10 | B (B = 25 to 50-fold selective for hTREX1)
COCCn1ncc(C(c2cc(F)ccc2C#N)C(C)c2nc(C(=O)Nc3cnoc3)c(O)c(=O)n2C)c1C (single isomer, unassigned) [Example 104 D2E1] | > 10 | > 10 | A (A = <25 fold selective for hTREX1)
CC(c1nc(C(=O)Nc2cnoc2)c(O)c(=O)n1C)C(c1cnn(C2COC2)c1)c1ccccc1C#N (single isomer, unassigned) [Example 106 D1E2] | > 10 | > 10 | A (A = <25 fold selective for hTREX1)
Cc1cnc(C)c(C(c2ccccc2C#N)C(C)c2nc(C(=O)Nc3cnoc3)c(O)c(=O)n2C)n1 (single isomer, unassigned) [Example 82 D1E2] | > 10 | > 10 | B (B = 25 to 50-fold selective for hTREX1)
CC(c1nc(C(=O)Nc2cnoc2)c(O)c(=O)n1C)C(c1cnn(CC(C)(C)O)c1)c1ccccc1C#N (single isomer, unassigned) [Example 36 D2E1] | > 10 | > 10 | B (B = 25 to 50-fold selective for hTREX1)
Cc1cn(C)nc1C(c1ccccc1C#N)C(C)c1nc(C(=O)Nc2cnoc2)c(O)c(=O)n1C (single isomer, unassigned) [Example 64 D2E1] | < 1 | 1 to 10 | C (C = >50 fold selective for hTREX1)
CC(c1nc(C(=O)Nc2cnoc2)c(O)c(=O)n1C)C(c1cnn(CCN2CCOCC2)c1)c1ccccc1C#N (single isomer, unassigned) [Example 20 D2E1] | > 10 | > 10 | B (B = 25 to 50-fold selective for hTREX1)
CCn1ncc(C(c2ccccc2C#N)C(C)c2nc(C(=O)Nc3cnoc3)c(O)c(=O)n2C)c1C (single isomer, unassigned) [Example 68 D2E1] | < 1 | > 10 | B (B = 25 to 50-fold selective for hTREX1)
Cc1cnc(C)c(C(c2ccccc2C#N)C(C)c2nc(C(=O)Nc3cnoc3)c(O)c(=O)n2C)n1 (single isomer, unassigned) [Example 82 D2E2] | > 10 | > 10 | B (B = 25 to 50-fold selective for hTREX1)

Further lines, results first:

IC50 [1] [nM] | IC50 [2] [nM] | hTREX1 vs hTREX2 selectivity [3] | Compound
> 10 | > 10 | A (A = <25 fold selective for hTREX1) | Cc1cnc(C)c(C(c2ccccc2Cl)C(C)c2nc(C(=O)Nc3cnoc3)c(O)c(=O)n2C)n1 (single isomer, unassigned) [Example 120 D1E2]
> 10 | > 10 | A (A = <25 fold selective for hTREX1) | Cc1cc(C(c2cc(F)ccc2Cl)C(C)c2nc(C(=O)Nc3cnoc3)c(O)c(=O)n2C)n(C)n1 (single isomer, unassigned) [Example 113 D2E1]
> 10 | > 10 | A (A = <25 fold selective for hTREX1) | CC(c1nc(C(=O)Nc2cnoc2)c(O)c(=O)n1C)C(c1ccccc1Cl)c1nncn1C (single isomer, unassigned) [Example 152 D1E2]
> 10 | > 10 | A (A = <25 fold selective for hTREX1) | CC(c1nc(C(=O)Nc2cnoc2)c(O)c(=O)n1C)C(c1cnc(C(F)(F)F)cn1)c1ccccc1C#N (single isomer, unassigned) [Example 118 D2E2]
> 10 | > 10 | A (A = <25 fold selective for hTREX1) | COCCn1ncc(C(c2cc(F)ccc2Cl)C(C)c2nc(C(=O)Nc3cnoc3)c(O)c(=O)n2C)c1C (single isomer, unassigned) [Example 108 D1E2]
> 10 | > 10 | A (A = <25 fold selective for hTREX1) | Cc1ccn(C(c2cc(F)ccc2Cl)C(C)c2nc(C(=O)Nc3cnoc3)c(O)c(=O)n2C)n1 (single isomer, unassigned) [Example 146 D1E2]
> 10 | > 10 | A (A = <25 fold selective for hTREX1) | Cc1cnc(C(c2ccccc2C#N)C(C)c2nc(C(=O)Nc3cnoc3)c(O)c(=O)n2C)c(C)n1 (single isomer, unassigned) [Example 123 D1E2]
> 10 | > 10 | A (A = <25 fold selective for hTREX1) | CCn1c(C(C)C(c2cnn(C)c2)c2ccccc2C#N)nc(C(=O)Nc2cnoc2)c(O)c1=O (single isomer, unassigned) [Example 149 D2E1]
> 10 | > 10 | A (A = <25 fold selective for hTREX1) | COCCn1ncc(C(c2cc(F)ccc2Cl)C(C)c2nc(C(=O)Nc3cnoc3)c(O)c(=O)n2C)c1C (single isomer, unassigned) [Example 108 D2E2]
1 to 10 | > 10 | C (C = >50 fold selective for hTREX1) | Cc1cnc(C(c2ccccc2C#N)C(C)c2nc(C(=O)Nc3cnoc3)c(O)c(=O)n2C)c(C)n1 (single isomer, unassigned) [Example 123 D2E1]
